Experimental data: ChEMBL document CHEMBL3885861, “Open TG-GATES”

Species: Rattus norvegicus
Assay: Open TG-GATES - Regimen: Single
Assay type: toxicity, organism-based, Sprague-Dawley
Set-up: regimen Single, gender Male, age 6 weeks
Settings: in vivo, po, 0 mg/kg, route gavage, dose level Control; for APTT / Bas / Eos / Fbg / Hb / Ht / Lym / MCH / MCHC / MCV / Mono / Neu / PT / Plat / RBC / Ret / WBC: tissue Blood; for KIDNEY_L / KIDNEY_R / KIDNEY_TOTAL: tissue Kidney; for LIVER: tissue Liver; for A/G / ALP / ALT / AST / BUN / CRE / Ca / Cl / DBIL / GLC / IP / K / LDH / Na / PL / RALB / TBIL / TC / TG / TP / gamma-GTP: tissue Plasma

S=C=Nc1cccc2ccccc12 [1-NAPHTHYLISOTHIOCYANATE]
TERMINAL_BW (3 h): 224.9 g
APTT (3 h): 18.6 s
Bas (3 h): 0%
Eos (3 h): 1%
Fbg (3 h): 223 mg/dL
Hb (3 h): 13.7 g/dL
Ht (3 h): 37.8%
Lym (3 h): 78%
MCH (3 h): 22.1 pg
MCHC (3 h): 36.2%
MCV (3 h): 61 fL
Mono (3 h): 2.6%
Neu (3 h): 17.6%
PT (3 h): 11.9 s
Plat (3 h): 124.1 x10_4/uL
RBC (3 h): 619.8 x10_4/ul
Ret (3 h): 8.2%
WBC (3 h): 101.9 x10_2/uL
KIDNEY_L (3 h): 1 g
KIDNEY_R (3 h): 1 g
KIDNEY_TOTAL (3 h): 2 g
LIVER (3 h): 10.2 g
A/G (3 h): 1.6
ALP (3 h): 937 IU/L
ALT (3 h): 37.6 IU/L
AST (3 h): 73 IU/L
BUN (3 h): 11.2 mg/dL
CRE (3 h): 0.4 mg/dL
Ca (3 h): 10.9 mg/dL
Cl (3 h): 103.4 meq/L
DBIL (3 h): 0.07 mg/dL
GLC (3 h): 200.8 mg/dL
IP (3 h): 9.4 mg/dL
K (3 h): 3.9 meq/L
LDH (3 h): 189.2 IU/L
Na (3 h): 141.6 meq/L
PL (3 h): 161.6 mg/dL
RALB (3 h): 3.4 g/dL
TBIL (3 h): 0.1 mg/dL
TC (3 h): 81 mg/dL
TG (3 h): 82.2 mg/dL
TP (3 h): 5.5 g/dL
gamma-GTP (3 h): 1 IU/L
TERMINAL_BW (6 h): 218.1 g
APTT (6 h): 18.7 s
Bas (6 h): 0.2%
Eos (6 h): 0.8%
Fbg (6 h): 232.2 mg/dL
Hb (6 h): 13.4 g/dL
Ht (6 h): 37.2%
Lym (6 h): 76%
MCH (6 h): 22 pg
MCHC (6 h): 36%
MCV (6 h): 61.2 fL
Mono (6 h): 3.4%
Neu (6 h): 18.4%
PT (6 h): 11.8 s
Plat (6 h): 128 x10_4/uL
RBC (6 h): 609.2 x10_4/ul
Ret (6 h): 7.2%
WBC (6 h): 106.9 x10_2/uL
KIDNEY_L (6 h): 1 g
KIDNEY_R (6 h): 1 g
KIDNEY_TOTAL (6 h): 2 g
LIVER (6 h): 9.6 g
A/G (6 h): 1.8
ALP (6 h): 1087 IU/L
ALT (6 h): 35.6 IU/L
AST (6 h): 71.8 IU/L
BUN (6 h): 10 mg/dL
CRE (6 h): 0.4 mg/dL
Ca (6 h): 10.6 mg/dL
Cl (6 h): 103.8 meq/L
DBIL (6 h): 0.07 mg/dL
GLC (6 h): 192 mg/dL
IP (6 h): 10 mg/dL
K (6 h): 3.8 meq/L
LDH (6 h): 167.6 IU/L
Na (6 h): 141.8 meq/L
PL (6 h): 142.8 mg/dL
RALB (6 h): 3.5 g/dL
TBIL (6 h): 0.1 mg/dL
TC (6 h): 76.2 mg/dL
TG (6 h): 63.8 mg/dL
TP (6 h): 5.4 g/dL
gamma-GTP (6 h): 1 IU/L
TERMINAL_BW (9 h): 216.9 g
APTT (9 h): 17.6 s
Bas (9 h): 0.2%
Eos (9 h): 0.8%
Fbg (9 h): 234.6 mg/dL
Hb (9 h): 13.3 g/dL
Ht (9 h): 36.8%
Lym (9 h): 75%
MCH (9 h): 21.7 pg
MCHC (9 h): 36.1%
MCV (9 h): 60.1 fL
Mono (9 h): 2.2%
Neu (9 h): 20.8%
PT (9 h): 12.2 s
Plat (9 h): 121.1 x10_4/uL
RBC (9 h): 612 x10_4/ul
Ret (9 h): 6.9%
WBC (9 h): 90.1 x10_2/uL
KIDNEY_L (9 h): 0.9 g
KIDNEY_R (9 h): 1 g
KIDNEY_TOTAL (9 h): 1.9 g
LIVER (9 h): 8.8 g
A/G (9 h): 1.8
ALP (9 h): 908.4 IU/L
ALT (9 h): 28.8 IU/L
AST (9 h): 57.4 IU/L
BUN (9 h): 10.8 mg/dL
CRE (9 h): 0.4 mg/dL
Ca (9 h): 10.7 mg/dL
Cl (9 h): 103.6 meq/L
DBIL (9 h): 0.07 mg/dL
GLC (9 h): 201.4 mg/dL
IP (9 h): 10.3 mg/dL
K (9 h): 4 meq/L
LDH (9 h): 145.6 IU/L
Na (9 h): 141.8 meq/L
PL (9 h): 139 mg/dL
RALB (9 h): 3.5 g/dL
TBIL (9 h): 0.1 mg/dL
TC (9 h): 74.4 mg/dL
TG (9 h): 50.8 mg/dL
TP (9 h): 5.5 g/dL
gamma-GTP (9 h): 1 IU/L
TERMINAL_BW (24 h): 234.7 g
APTT (24 h): 17.8 s
Bas (24 h): 0.4%
Eos (24 h): 0.8%
Fbg (24 h): 222.8 mg/dL
Hb (24 h): 13.4 g/dL
Ht (24 h): 37.5%
Lym (24 h): 81.6%
MCH (24 h): 22.2 pg
MCHC (24 h): 35.6%
MCV (24 h): 62.5 fL
Mono (24 h): 3%
Neu (24 h): 13.6%
PT (24 h): 11.7 s
Plat (24 h): 128.7 x10_4/uL
RBC (24 h): 601 x10_4/ul
Ret (24 h): 6.6%
WBC (24 h): 91.3 x10_2/uL
KIDNEY_L (24 h): 1 g
KIDNEY_R (24 h): 1 g
KIDNEY_TOTAL (24 h): 2 g
LIVER (24 h): 10.8 g
A/G (24 h): 1.6
ALP (24 h): 1087.6 IU/L
ALT (24 h): 37.8 IU/L
AST (24 h): 75.8 IU/L
BUN (24 h): 15.2 mg/dL
CRE (24 h): 0.4 mg/dL
Ca (24 h): 10.8 mg/dL
Cl (24 h): 103.6 meq/L
DBIL (24 h): 0.062 mg/dL
GLC (24 h): 188.8 mg/dL
IP (24 h): 7.6 mg/dL
K (24 h): 3.9 meq/L
LDH (24 h): 214.6 IU/L
Na (24 h): 141.6 meq/L
PL (24 h): 140.4 mg/dL
RALB (24 h): 3.4 g/dL
TBIL (24 h): 0.1 mg/dL
TC (24 h): 70.8 mg/dL
TG (24 h): 100.2 mg/dL
TP (24 h): 5.6 g/dL
gamma-GTP (24 h): 1.2 IU/L
